Measured values reported in patent US8471061B2 (priority 2004, dated 2013).

What was measured:
[1] = Test on the generation of silver chloride precipitation with silver nitrate; assay type: physicochemical; conditions: 0.5 g with 0.5 g of silver nitrate in 10 ml of ion exchange water, 5 minutes
Protocol: In 10 ml of ion exchange water, 0.5 g of 5-aminolevulinic acid phosphate and 0.5 g of silver nitrate were dissolved, the mixture was allowed to stand still for 5 minutes, and conditions of the liquid was observed. […] In this connection, 0.5 g of 5-aminolevulinic acid hydrochloride and 0.5 g of silver nitrate were dissolved in 10 ml of ion exchange water and allowed to stand still for 5 minutes, and conditions of the liquid was observed.
In 10 ml of ion exchange water, 0.5 g of 5-aminolevulinic acid nitrate and 0.5 g of silver nitrate were dissolved, the mixture was allowed to stand still for 5 minutes, and conditions of the liquid was observed.
In this connection, 0.5 g of 5-aminolevulinic acid hydrochloride and 0.5 g of silver nitrate were dissolved in 10 ml of ion exchange water and allowed to stand still for 5 minutes, and conditions of the liquid was observed.
In 10 ml of ion exchange water, 0.5 g of 5-aminolevulinic acid p-toluenesulfonate and 0.5 g of silver nitrate were dissolved, the mixture was allowed to stand still for 5 minutes, and conditions of the liquid was observed.

[2] = pH of solution of 0.5 g in 0.5 ml of distilled water; assay type: physicochemical
Protocol: (§1) Using three New Zealand white rabbits (males), a solution prepared by dissolving 0.5 g of 5-aminolevulinic acid phosphate in 0.5 ml of distilled water (pH 3.1) was applied for 4 hours to a 2.5 cm square area of the shaved uninjured skin of each animal which was then observed for 1, 24, 48 and 72 hours.

[3] = tested on: cotton (variety; M-5 Acala); assay: Salinity tolerance improving effect; assay type: in vivo
Protocol: A porcelain pot of 12 cm in inner diameter having no drainage hole was filled with 600 g of upland soil, and 7 to 8 seeds of cotton seeds (variety; M-5 Acala) were sowed, covered with 1 cm in thickness of the soil and allowed to grow in a green house. Thereafter, general management was carried out, and at the time of leaflet development, a salinity improving agent containing each of the compounds to be tested with respective concentrations shown in Table 12 and 0.05% (v/v) of a spreader (Neoesterin: manufactured by Kumiai Chemical Industry) was prepared and was applied to foliage at an application volume of 100 liters per 10 are. Four days thereafter, sodium chloride in an amount which corresponds to 0 to 1.5% by weight per soil weight as shown in Table 12 was dissolved in 30 ml of water and added dropwise to the soil. By further continuing general cultivation, examination was carried out 23 days thereafter. the examination was carried out by naked eye observation, and the results of salt damage were evaluated based on the following 6 steps.
• 0: Absolutely no salt damage is observed. • 1: Very weak salt damage is observed. • 2: Weak salt damage is observed. • 3: Obvious salt damage is observed. • 4: Strong salt damage is observed. • 5: The plant body withered up due to salt damage.

[4] = Stimulation test (sense of taste, solid put on the tongue); assay type: in vivo; design: key to sense of taste stimulation: 0: No stimulation is felt.; 1: There is a stimulation but weak.; 2: There is a strong stimulation; conditions: 5 mg of solid on the tongue; one score per subject, five subjects
Protocol: Each of five subjects has evaluated the sense of taste of the 5-aminolevulinic acid phosphate obtained in Example 1, in accordance with the following criteria by directly putting 5 mg of its solid on the tongue.
• 0: No stimulation is felt. • 1: There is a stimulation but weak. • 2: There is a strong stimulation.
The sense of taste was evaluated in the same manner as in Example 6, except that 5 mg of solid of 5-aminolevulinic acid hydrochloride was used.

Rice seeds (Akinishiki) = assay: Plant growth regulation effect; assay type: in vivo; conditions: ratio to untreated plot
Protocol: Rice seeds (Akinishiki) were soaked in Benlate (manufactured by Sumika Takeda Engei) (200 times) aqueous solution for a whole day and night and then incubated at 30° C. under a dark condition to effect hastening of germination. Seeds of even pigeon breast stage were selected, 10 seeds were inserted using a pair of tweezers into a groove on one expanded polyethylene sheet, which was made using a cutter knife, and this sheet was floated on a tall Petri dish filled with 150 ml of 5-aminolevulinic acid phosphate of respective concentrations shown in Table 11 and incubated at 25° C. for 24 hours under 5,000 lux continuous light irradiation. The number of repetitions was set to 3 repetitions for each concentration. Examination was carried out three days thereafter, and lengths of the first leaf sheath and seminal root in each plot were measured to calculate their ratios to those in the untreated plot and to calculate average values thereof.

[5] = tested on: New Zealand white rabbits (males), shaved uninjured skin; conditions: rabbit, in vivo
Protocol: as §1

[6] = tested on: spiderwort Commelina communis; assay: Plant activating effect, foliar application, spiderwort; assay type: in vivo; conditions: 21 days, 12 plants
Protocol: A total of 12 pots, in which 600 g of volcanic ash soil was packed in a porcelain pot of 12 cm in inner diameter, and 1 plant of a spiderwort Commelina communis grown to a height of 15 cm was planted in 1 pot, were prepared and placed under a constant temperature environment of 20° C., and foliar application treatment was carried out once a day using the following application liquids. Conditions of the leaves 21 days thereafter were observed.

For `Cl.NCC(=O)CCC(=O)O` [5-aminolevulinic acid hydrochloride, reference compound], which generation of precipitate [1] is on record?
Its generation of precipitate is “Generation of the precipitate was found”.

And the pH of solution [2]?
Its pH of solution is at most 2.0.

And the salt damage evaluation ([3]; treating concentration 10 ppm, NaCl 0 wt % per soil weight)?
The salt damage evaluation was 0.

And the salt damage evaluation ([3]; treating concentration 10 ppm, NaCl 0.5 wt % per soil weight)?
The salt damage evaluation was 1.

And the salt damage evaluation ([3]; treating concentration 10 ppm, NaCl 0.75 wt % per soil weight)?
The salt damage evaluation was 1.

And the salt damage evaluation ([3]; treating concentration 10 ppm, NaCl 1 wt % per soil weight)?
The salt damage evaluation was 1.

And the salt damage evaluation ([3]; treating concentration 10 ppm, NaCl 1.5 wt % per soil weight)?
Its salt damage evaluation is 2.

And the salt damage evaluation ([3]; treating concentration 30 ppm, NaCl 0 wt % per soil weight)?
Its salt damage evaluation is 0.

What about the salt damage evaluation ([3]; treating concentration 30 ppm, NaCl 0.5 wt % per soil weight) of the same molecule?
Its salt damage evaluation is 1.

And the salt damage evaluation ([3]; treating concentration 30 ppm, NaCl 0.75 wt % per soil weight)?
Its salt damage evaluation is 2.

What about the salt damage evaluation ([3]; treating concentration 30 ppm, NaCl 1 wt % per soil weight) of the same molecule?
The salt damage evaluation was 3.

What about the salt damage evaluation ([3]; treating concentration 30 ppm, NaCl 1.5 wt % per soil weight) of the same molecule?
Its salt damage evaluation is 3.

What about the salt damage evaluation ([3]; treating concentration 100 ppm, NaCl 0 wt % per soil weight) of the same molecule?
Its salt damage evaluation is 0.

And the salt damage evaluation ([3]; treating concentration 100 ppm, NaCl 0.5 wt % per soil weight)?
The salt damage evaluation was 1.

What about the salt damage evaluation ([3]; treating concentration 100 ppm, NaCl 0.75 wt % per soil weight) of the same molecule?
The salt damage evaluation was 1.

And the salt damage evaluation ([3]; treating concentration 100 ppm, NaCl 1 wt % per soil weight)?
The salt damage evaluation was 2.

And the salt damage evaluation ([3]; treating concentration 100 ppm, NaCl 1.5 wt % per soil weight)?
Its salt damage evaluation is 3.

What about the salt damage evaluation ([3]; treating concentration 300 ppm, NaCl 0 wt % per soil weight) of the same molecule?
The salt damage evaluation was 0.

And the salt damage evaluation ([3]; treating concentration 300 ppm, NaCl 0.5 wt % per soil weight)?
The salt damage evaluation was 0.

And the salt damage evaluation ([3]; treating concentration 300 ppm, NaCl 0.75 wt % per soil weight)?
Its salt damage evaluation is 1.

And the salt damage evaluation ([3]; treating concentration 300 ppm, NaCl 1 wt % per soil weight)?
Its salt damage evaluation is 1.

And the salt damage evaluation ([3]; treating concentration 300 ppm, NaCl 1.5 wt % per soil weight)?
Its salt damage evaluation is 2.

And the “sense of taste stimulation” value [4]?
Its value is 2.

And the “First leaf sheath length (%)” value (Rice seeds (Akinishiki); 1 ppm)?
The value was 107%.

What about the “Seminal root length (%)” value (Rice seeds (Akinishiki); 1 ppm) of the same molecule?
The value was 103%.

And the “First leaf sheath length (%)” value (Rice seeds (Akinishiki); 10 ppm)?
The value was 101%.

And the “Seminal root length (%)” value (Rice seeds (Akinishiki); 10 ppm)?
Its value is 96%.

And the “First leaf sheath length (%)” value (Rice seeds (Akinishiki); 100 ppm)?
The value was 98%.

What about the “Seminal root length (%)” value (Rice seeds (Akinishiki); 100 ppm) of the same molecule?
The value was 109%.

And the “judgement by the OECD Guideline from pH (animal test not carried out)” value [5]?
The value was “judged corrosive”.

And the “plants judged 0: Abnormality was not found on the leaf surface” value ([6]; 1 ppm in tap water)?
The value was 2 plants.

What about the “plants judged 1: A region discolored to yellow was found on the leaf surface” value (from here on “plants judged 1: A region discolored”) ([6]; 1 ppm in tap water) of the same molecule?
Its value is 7 plants.

What about the “plants judged 2: A necrotic region was found on the leaf surface” value ([6]; 1 ppm in tap water) of the same molecule?
Its value is 3 plants.

What about the “plants judged 0: Abnormality was not found on the leaf surface” value ([6]; 10 ppm in tap water) of the same molecule?
The value was 5 plants.

What about the “plants judged 1: A region discolored” value ([6]; 10 ppm in tap water) of the same molecule?
The value was 5 plants.

What about the “plants judged 2: A necrotic region was found on the leaf surface” value ([6]; 10 ppm in tap water) of the same molecule?
The value was 2 plants.

What about the “plants judged 0: Abnormality was not found on the leaf surface” value ([6]; 100 ppm in tap water) of the same molecule?
Its value is 5 plants.

And the “plants judged 1: A region discolored” value ([6]; 100 ppm in tap water)?
The value was 4 plants.

What about the “plants judged 2: A necrotic region was found on the leaf surface” value ([6]; 100 ppm in tap water) of the same molecule?
Its value is 3 plants.
